Laboratory results: the NIST ThermoML archive (doi:10.1016/j.jct.2019.06.026)
± gives the expanded uncertainty stated by the source. One block for each compound: values may come before it.

Settings: Liquid, Ebulliometric method (Recirculating still)

- vapor or sublimation pressure (381.95 K): 101.3 ± 3.6 kPa
Compound: OCC(F)(F)C(F)F [2,2,3,3-tetrafluoro-1-propanol]

- vapor or sublimation pressure (471.2 K): 101.3 ± 3.6 kPa
Compound: CNC=O [N-methylformamide]

- vapor or sublimation pressure (476.05 K): 101.3 ± 3.6 kPa
Compound: CN1CCCC1=O [N-methylpyrrolidone]

- vapor or sublimation pressure (426.05 K): 101.3 ± 3.6 kPa
Compound: CN(C)C=O [dimethylformamide]
